Data reported in ChEMBL document CHEMBL5726955, “Substituted boronic acids and boronate esters as immunoproteasome inhibitors” (2019).

Molecular target: T1, Proteasome Macropain subunit MB1 (Homo sapiens, UniProt P28074)
T1 sequence (P28074 whole entry): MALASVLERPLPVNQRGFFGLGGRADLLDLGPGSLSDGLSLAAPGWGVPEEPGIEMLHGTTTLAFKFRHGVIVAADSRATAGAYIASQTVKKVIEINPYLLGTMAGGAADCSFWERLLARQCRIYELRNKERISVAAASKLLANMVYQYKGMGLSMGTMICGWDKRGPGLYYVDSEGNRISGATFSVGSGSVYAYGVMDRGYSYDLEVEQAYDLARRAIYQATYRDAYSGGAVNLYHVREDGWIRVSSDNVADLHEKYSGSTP
Assay: Determination of Beta5 Activity: Measurement of Beta5 inhibition is performed in 384 well format based on fluorescence intensity assay.Purified human constitutive proteasome (1.25 nM) and serial diluted compounds in DMSO (range of concentrations from 30 μM to […]) or controls are incubated for 20 minutes at 25° C. in assay buffer containing 50 mM Tris pH 7.4, 0.03% SDS, 1 mM EDTA and 1% DMSO. The reaction is initiated by the addition of the fluorogenic peptide substrate, Suc-LLVY-AMC (Bachem 1-1395), at a concentration of 40 μM. After 60 minutes of incubation at 37° C., fluorescence intensity is measured at λex=350 nm and λem=450 nm with a fluorescence reader (Perkin Elmer Envision reader or equivalent).

Row | IC50 [nM] | Structure (SMILES)
1 | > 5000 | CCO[C@@H](C(=O)N[C@@H](Cc1coc2ccccc12)B(O)O)c1ccccc1
2 | < 50 | Cc1ccc(OCCC(=O)N[C@@H](Cc2coc3ccccc23)B(O)O)cc1
